Test results from PMC9787607, “A Novel Protocol for the Synthesis of 1,2,4-Oxadiazoles Active against Trypanosomatids and Drug-Resistant Leukemia Cell Lines” (Tropical Medicine and Infectious Disease, 2022).

Key:
[1] = tested on: L. amazonensis promastigotes; experiment: Anti-L. amazonensis promastigote assessment (MTT); assay type: cell-based; settings: Leishmania amazonensis; 48 h, MTT; read-out: EC50 L. amazonensis promastigotes
Method: Promastigotes of L. amazonensis (MHOM/BR/75/Josefa) were cultured in Schneider’s insect medium (SIM) with 10% FBS. Parasites were harvested at the stationary growth phase for assessment against promastigotes and 24 h after cultures reached the stationary growth phase for infection assays. […]. Complete SIM media and amphotericin B (AmB) at 10 µM were used as negative and positive controls, respectively. A vehicle control containing SIM with 10% SFB media and 0.3% DMSO was maintained for comparison. The final volume of the experiment was 100 µL. After incubation for 48 h at 27 °C, MTT salt solution in PBS was added (3.0 mM, 20 µL per well). After incubation for 2 h at 27 °C, the MTT formazan was dissolved by adding 120 µL of solubilizing buffer (50% isopropanol, 40% acetate buffer pH 5.4, 10% Triton-X). Absorbance was measured using a microplate reader at 570 nm.
The percent cell or parasite viability was calculated by the formula: % viability = [(A − P)/(N − P)] × 100, A = absorbance of specific well, P = positive control, N = negative control. Determination of half-maximal effective concentrations (EC50), calculated by logarithmic regression, and significance analysis (p < 0.05), using ANOVA and Dunnett’s test, by GraphPad Prism 7.0 software. The results are expressed as the mean and standard deviation (SD) of three independent experiments.

[2] = biological target: T1, human serum albumin (HSA) (Homo sapiens, UniProt P02768); experiment: Steady-state fluorescence quenching of HSA; assay type: binding; settings: for KSV (Stern-Volmer quenching constant) / kq (bimolecular quenching rate constant) / n (number of binding sites): PBS
T1 construct: purchased Sigma-Aldrich A3782-1G
T1 sequence (P02768 25-609): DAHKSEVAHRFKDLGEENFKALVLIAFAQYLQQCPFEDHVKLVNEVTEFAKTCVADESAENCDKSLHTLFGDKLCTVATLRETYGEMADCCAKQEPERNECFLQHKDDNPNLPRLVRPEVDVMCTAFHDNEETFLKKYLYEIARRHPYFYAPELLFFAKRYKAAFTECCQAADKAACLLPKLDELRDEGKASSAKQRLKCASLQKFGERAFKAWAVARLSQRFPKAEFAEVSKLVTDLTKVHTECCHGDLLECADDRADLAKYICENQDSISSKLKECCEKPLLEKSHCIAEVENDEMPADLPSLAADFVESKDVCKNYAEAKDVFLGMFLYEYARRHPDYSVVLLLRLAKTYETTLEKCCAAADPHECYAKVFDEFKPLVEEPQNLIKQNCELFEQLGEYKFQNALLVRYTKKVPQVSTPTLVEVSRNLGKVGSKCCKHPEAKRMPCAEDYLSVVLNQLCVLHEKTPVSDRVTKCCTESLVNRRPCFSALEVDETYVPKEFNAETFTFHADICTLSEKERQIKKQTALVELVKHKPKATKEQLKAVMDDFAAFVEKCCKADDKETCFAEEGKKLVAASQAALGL
Method: Steady-state fluorescence and circular dichroism (CD) spectra were measured on a Jasco J-815 optical spectrometer employing a Jasco PFD-425S15F thermostatic cuvette holder. All spectra were recorded with appropriate background corrections. For the steady-state fluorescence data, inner filter corrections were performed, following the literature.
The steady-state fluorescence measurements were carried out in the 290–450 nm range (λexc = 280 nm) at 289, 296, 303, 310, and 317 K. The addition of compound 23 to a 3.0 mL HSA solution (1.0 × 10^−5 M, in PBS) was done manually, achieving final concentrations of 0.17, 0.33, 0.50, 0.66, 0.83, 0.99, 1.15, and 1.32 × 10^−5 M. To obtain quantitative information on the binding capacity of 23 to HSA, Stern-Volmer, double-logarithmic, van’t Hoff, and Gibbs’ free energy analysis were applied following our previous works.

[3] = biological target: T1, human serum albumin (HSA); experiment: Competitive binding with HSA site probes (warfarin, ibuprofen, digitoxin)
Method: Competitive binding studies were carried out using site probes for sites I, II, and III, i.e., warfarin, ibuprofen, and digitoxin, respectively. The HSA and site probes were used at a fixed concentration (1.0 × 10^−5 M), and the fluorescence quenching titration with compound 23 was performed as described previously for the steady-state fluorescence quenching procedure at 310 K.

[4] = biological target: T1, human serum albumin (HSA); experiment: Time-resolved fluorescence of HSA; assay type: binding; settings: HSA 1.0 × 10^−5 M with 23 1.32 × 10^−5 M, pH 7.4, 296 K
Method: Time-resolved fluorescence measurements were performed on a model FL920 CD fluorimeter from Edinburgh Instruments equipped with an EPL laser (λexc = 280 ± 10 nm; pulse of 850 ps with energy of 1.8 µW/pulse; monitoring emission at 340 nm). The time-resolved fluorescence decays of a 3.0 mL HSA solution (1.0 × 10^−5 M, in PBS) were obtained without and with compound 23 (1.32 × 10^−5 M).

[5] = biological target: T1, human serum albumin (HSA); experiment: Circular dichroism of HSA; assay type: binding; settings: HSA 1.0 × 10^−6 M, proportion 1:10, 310 K
Method: The CD analysis was carried out using 3.0 mL of HSA solution (1.0 × 10^−6 M, in PBS) without and with 23 in the proportion 1:10 in the 200–250 nm range at 310 K. The average spectra were obtained from three successive runs and corrected by subtraction of the buffer signal. The secondary structure content was estimated by analysis of the CD spectra using the online server BestSel (Beta Structure Selection http://bestsel.elte.hu/index.php; accessed on 12 March 2022).

SMILES: COc1cc(/C=C/c2nc(-c3ccccc3)no2)cc(OC)c1OC [Compound 12, (E)-3-phenyl-5-[2-(3,4,5-trimethoxyphenyl)vinyl]-1,2,4-oxadiazole]
- EC50 [1]: 26 ± 3 µM

SMILES: COc1cc(/C=C/c2nc(-c3cc(OC)c(OC)c(OC)c3)no2)cc(OC)c1OC [Compound 23, (E)-3-(3,4,5-trimethoxyphenyl)-5-[2-(3,4,5-trimethoxyphenyl)-vinyl]-1,2,4-oxadiazole]
- EC50 [1]: 12.2 ± 0.7 µM
- ΔG° ([2]; 289 K): −28.7 kJmol^−1
- KSV (Stern-Volmer quenching constant) ([2]; 289 K): 1.56 ± 0.02 × 10^5 M^−1
- kq (bimolecular quenching rate constant) ([2]; 289 K): 3.22e+13 M⁻¹ s⁻¹
- n (number of binding sites) ([2]; 289 K): 0.992 ± 0.01
- KSV values, order of magnitude ([2]; 289–317 K): ~10^5 M^−1
- kq values, order of magnitude ([2]; 289–317 K): ~10^13 M^−1s^−1
- ΔG° ([2]; 296 K): −29.2 kJmol^−1
- KSV (Stern-Volmer quenching constant) ([2]; 296 K): 1.44 ± 0.02 × 10^5 M^−1
- kq (bimolecular quenching rate constant) ([2]; 296 K): 2.97e+13 M⁻¹ s⁻¹
- n (number of binding sites) ([2]; 296 K): 1.04 ± 0.01
- ΔG° ([2]; 303 K): −29.7 kJmol^−1
- KSV (Stern-Volmer quenching constant) ([2]; 303 K): 1.31 ± 0.07 × 10^5 M^−1
- kq (bimolecular quenching rate constant) ([2]; 303 K): 2.7e+13 M⁻¹ s⁻¹
- n (number of binding sites) ([2]; 303 K): 1.09 ± 0.01
- ΔG° ([2]; 310 K): −30.2 kJmol^−1
- KSV (Stern-Volmer quenching constant) ([2]; 310 K): 1.22 ± 0.01 × 10^5 M^−1
- kq (bimolecular quenching rate constant) ([2]; 310 K): 2.52e+13 M⁻¹ s⁻¹
- n (number of binding sites) ([2]; 310 K): 1.02 ± 0.01
- ΔG° ([2]; 317 K): −30.7 kJmol^−1
- KSV (Stern-Volmer quenching constant) ([2]; 317 K): 1.19 ± 0.02 × 10^5 M^−1
- kq (bimolecular quenching rate constant) ([2]; 317 K): 2.45e+13 M⁻¹ s⁻¹
- n (number of binding sites) ([2]; 317 K): 1.02 ± 0.01
- ΔH° ([2]; van't Hoff analysis, 289–317 K): −7.85 ± 0.71 kJmol^−1
- ΔS° ([2]; van't Hoff analysis, 289–317 K): 72.2 ± 2.3 J/(mol·K)
- decrease of the KSV value in the presence of warfarin ([3]; 310 K): 14%
- main binding site in HSA ([3]; competitive binding with site probes): subdomain IIA (site I)
- %Relative τ1 of HSA:23 [4]: 23.5%
- %Relative τ2 of HSA:23 [4]: 76.5%
- τ1 of HSA:23 [4]: 1.59 ± 0.11 ns
- τ2 of HSA:23 [4]: 5.70 ± 0.12 ns
- τaverage of HSA:23 [4]: 4.73 ± 0.11 ns
- effect on the secondary content of HSA (CD) [5]: does not significantly perturb
- melting point: 118 to 120 °C

SMILES: C(=C\c1nc(-c2ccccc2)no1)/c1cccnc1 [Compound 15, (E)-3-phenyl-5-[2-pyridyn-3-yl-vinyl]-1,2,4-oxadiazole]
- EC50 [1]: 53.6 ± 2.2 µM
- melting point: 107 to 110 °C

SMILES: COc1cc(-c2noc(/C=C/c3ccc4c(c3)OCO4)n2)cc(OC)c1OC [Compound 24, (E)-3-(3,4,5-trimethoxyphenyl)-5-[2-(3,4-methylenedioxy-phenyl)vinyl]-1,2,4-oxadiazole]
- EC50 [1]: 10 ± 2.7 µM
- melting point: 177 to 180 °C
